Measured values from patent US20260027101A1, “BACTERIAL TOPOISOMERASE INHIBITORS” (priority 2022, published 2026).
Values after ≈ are worked out from the molar mass of the structure shown.

Columns and labels:
Format in all cases: cell-based
[1] = system: Staphylococcus aureus D83N (29213-derived strain, GyrA substitution); experiment: microbe, parasite or virus in culture; settings: read-out: MIC against Staphylococcus aureus D83N
Procedure: (§1) Minimum inhibitory concentrations (MICs) were determined in triplicate according to Clinical and Laboratory Standards Institute (CLSI) guidelines using one or more strains of S. aureus or selected Gram-negative bacteria. […] Compounds were also assayed using a USA300 (Hidron, A. I., et al., Emergence of Community-Acquired Meticillin-Resistant Staphylococcus aureus Strain USA300 as a Cause of Necrotising Community-Onset Pneumonia. Lancet Infect. Dis. 2009, 9. 384-392) isolate of MRSA as well as a S. aureus strain isolated from a cystic fibrosis patient.

[2] = system: Salmonella enterica 14028 ΔtolC (efflux-deficient strain); experiment: microbe, parasite or virus in culture; settings: for MIC: Salmonella enterica, read-out: MIC against Salmonella enterica 14028 ΔtolC
Procedure: as §1

[3] = system: Staphylococcus aureus M121K (29213-derived strain, GyrA substitution); experiment: microbe, parasite or virus in culture; settings: read-out: MIC against Staphylococcus aureus M121K
Procedure: as §1

[4] = system: Staphylococcus aureus ATCC 29213; experiment: MIC, S. aureus ATCC 29213 (CLSI); settings: ATCC29213, read-out: MIC against Staphylococcus aureus ATCC 29213
Procedure: as §1

[5] = system: Staphylococcus aureus USA300 (MRSA isolate); experiment: MIC, S. aureus USA300 MRSA isolate (CLSI); settings: read-out: MIC against Staphylococcus aureus USA300
Procedure: as §1

[6] = system: Staphylococcus aureus CF isolate; experiment: MIC, S. aureus cystic fibrosis isolate (CLSI); settings: read-out: MIC against Staphylococcus aureus CF isolate
Procedure: as §1

[7] = system: Escherichia coli ATCC 25922; experiment: MIC, Escherichia coli ATCC 25922; settings: ATCC25922, read-out: MIC against Escherichia coli ATCC 25922
Procedure: as §1

[8] = system: Acinetobacter baumanii ATCC 19606; experiment: MIC, Acinetobacter baumanii ATCC 19606; settings: Acinetobacter baumannii, ATCC19606, read-out: MIC against Acinetobacter baumanii ATCC 19606
Procedure: as §1

[9] = system: Pseudomonas aeruginosa ATCC 27853; experiment: MIC, Pseudomonas aeruginosa ATCC 27853; settings: ATCC27853, read-out: MIC against Pseudomonas aeruginosa ATCC 27853
Procedure: as §1

[10] = system: Salmonella enterica ATCC 14028; experiment: MIC, Salmonella enterica ATCC 14028; settings: ATCC14028, read-out: MIC against Salmonella enterica ATCC 14028
Procedure: as §1

Compound | MIC [1] [µg/mL] | MIC [2] [µg/mL] | MIC [3] [µg/mL] | also measured
COc1ccc2ncc(F)c(CCN3CCC(C(O)C(O)c4ccc(C)cc4)CC3)c2n1 (single isomer, unassigned) [Example 13, 1-(1-(2-(3-fluoro-6-methoxy-1,5-naphthyridin-4-yl)ethyl)piperidin-4-yl)-2-(p-tolyl)ethane-1,2-diol] | > 32 | – | – | –
COc1ccc2ncc(F)c(CCN3CCC(C(O)C(O)c4ccc5c(c4)NC(=O)CO5)CC3)c2n1 (single isomer, unassigned) [Example 15, 6-(-2-(1-(2-(3-fluoro-6-methoxy-1,5-naphthyridin-4-yl)ethyl)piperidin-4-yl)-1,2-dihydroxyethyl)-2H-benzo[b][1,4]oxazin-3(4H)-one] | – | 0.5 (≈ 1.01 µM) | – | –
COc1ccc2ncc(F)c(CCN3CCC(C(O)C(O)c4ccc(C)cc4)CC3)c2n1 (single isomer, unassigned) [Example 16, 1-(1-(2-(3-fluoro-6-methoxy-1,5-naphthyridin-4-yl)ethyl)piperidin-4-yl)-2-(p-tolyl)ethane-1,2-diol] | – | – | 4 (≈ 9.1 µM) | –
COc1ccc2ncc(F)c(CCN3CCC(/C=C/c4ccc(C)cc4)CC3)c2n1 [Example 1, (E)-7-fluoro-2-methoxy-8-(2-(4-(4-methylstyryl)piperidin-1-yl)ethyl)-1,5-naphthyridine] | – | 0.5 to 1 (≈ 1.23 to 2.47 µM) | 2 to 4 (≈ 4.93 to 9.86 µM) | –
COc1ccc2ncc(F)c(CCN3CCC(/C=C/c4ccc5c(c4)OCCO5)CC3)c2n1 [Example 2, (E)-8-(2-(4-(2-(2,3-dihydrobenzo[b][1,4]dioxin-6-yl)vinyl)piperidin-1-yl)ethyl)-7-fluoro-2-methoxy-1,5-naphthyridine] | 2 (≈ 4.45 µM) | – | 2 (≈ 4.45 µM) | MIC [4]: 0.25 µg/mL (≈ 0.556 µM); MIC [5]: 0.5 µg/mL (≈ 1.11 µM); MIC [6]: 0.5 µg/mL (≈ 1.11 µM); MIC against Salmonella enterica 14028 ΔtolC ([2]; efflux-deficient strain): 0.125 µg/mL (≈ 0.278 µM); MIC [7]: 8 µg/mL (≈ 17.8 µM); MIC [8]: 8 µg/mL (≈ 17.8 µM); MIC [9]: 64 µg/mL (≈ 142 µM); MIC [10]: 64 µg/mL (≈ 142 µM)
COc1ccc2ncc(F)c(CCN3CCC(/C=C/c4ccc5c(c4)NC(=O)CO5)CC3)c2n1 [Example 3, (E)-6-(2-(1-(2-(3-fluoro-6-methoxy-1,5-naphthyridin-4-yl)ethyl)piperidin-4-yl)vinyl)-2H-benzo[b][1,4]oxazin-3(4H)-one] | 16 (≈ 34.6 µM) | 0.25 (≈ 0.541 µM) | 16 (≈ 34.6 µM) | MIC [4]: 0.5 µg/mL (≈ 1.08 µM); MIC [5]: ≤ 0.25 µg/mL; MIC [6]: 1 µg/mL (≈ 2.16 µM); MIC [7]: 4 µg/mL (≈ 8.65 µM); MIC [8]: 8 µg/mL (≈ 17.3 µM); MIC [9]: 4 µg/mL (≈ 8.65 µM); MIC [10]: 16 µg/mL (≈ 34.6 µM)
COc1ccc2ncc(F)c(CCN3CCC([C@@H](O)[C@H](O)c4ccc(C)cc4)CC3)c2n1 [Example 4, (1R,2R)-1-(1-(2-(3-fluoro-6-methoxy-1,5-naphthyridin-4-yl)ethyl)piperidin-4-yl)-2-(p-tolyl)ethane-1,2-diol] | – | 0.5 to 1 (≈ 1.14 to 2.28 µM) | – | –
COc1ccc2ncc(F)c(CCN3CCC([C@@H](O)[C@H](O)c4ccc5c(c4)OCCO5)CC3)c2n1 [Example 5, (1R,2R)-1-(2,3-dihydrobenzo[b][1,4]dioxin-6-yl)-2-(1-(2-(3-fluoro-6-methoxy-1,5-naphthyridin-4-yl)ethyl)piperidin-4-yl)ethane-1,2-diol] | – | 0.5 (≈ 1.03 µM) | – | –
COc1ccc2ncc(F)c(CCN3CCC([C@@H](O)[C@H](O)c4ccc5c(c4)NC(=O)CO5)CC3)c2n1 [Example 6, 6-((1R,2R)-2-(1-(2-(3-fluoro-6-methoxy-1,5-naphthyridin-4-yl)ethyl)piperidin-4-yl)-1,2-dihydroxyethyl)-2H-benzo[b][1,4]oxazin-3(4H)-one] | > 32 | – | > 32 | –
COc1ccc2ncc(F)c(CCN3CCC([C@H](O)[C@@H](O)c4ccc(C)cc4)CC3)c2n1 [Example 7, (1S,2S)-1-(1-(2-(3-fluoro-6-methoxy-1,5-naphthyridin-4-yl)ethyl)piperidin-4-yl)-2-(p-tolyl)ethane-1,2-diol] | > 32 | – | > 32 | –
COc1ccc2ncc(F)c(CCN3CCC([C@H](O)[C@@H](O)c4ccc5c(c4)NC(=O)CO5)CC3)c2n1 [Example 9, 6-((1S,2S)-2-(1-(2-(3-fluoro-6-methoxy-1,5-naphthyridin-4-yl)ethyl)piperidin-4-yl)-1,2-dihydroxyethyl)-2H-benzo[b][1,4]oxazin-3(4H)-one] | > 32 | 0.25 (≈ 0.503 µM) | > 32 | –
COc1ccc2ncc(F)c(CCN3CCC(/C=C\c4ccc(C)cc4)CC3)c2n1 [Example 10, (Z)-7-fluoro-2-methoxy-8-(2-(4-(4-methylstyryl)piperidin-1-yl)ethyl)-1,5-naphthyridine] | 32 (≈ 78.9 µM) | 8 (≈ 19.7 µM) | 32 (≈ 78.9 µM) | –
COc1ccc2ncc(F)c(CCN3CCC(CCc4ccc(C)cc4)CC3)c2n1 [Example 19, 7-fluoro-2-methoxy-8-(2-(4-(4-methylphenethyl)piperidin-1-yl)ethyl)-1,5-naphthyridine] | 4 (≈ 9.82 µM) | – | > 16 | –
COc1ccc2ncc(F)c(CCN3CCC(CCc4ccc5c(c4)OCCO5)CC3)c2n1 [Example 20, 8-(2-(4-(2-(2,3-dihydrobenzo[b][1,4]dioxin-6-yl)ethyl)piperidin-1-yl)ethyl)-7-fluoro-2-methoxy-1,5-naphthyridine] | 8 (≈ 17.7 µM) | 0.25 (≈ 0.554 µM) | > 8 | –
COc1ccc2ncc(F)c(CCN3CCC(CCc4ccc5c(c4)NC(=O)CO5)CC3)c2n1 [Example 21, 6-(2-(1-(2-(3-fluoro-6-methoxy-1,5-naphthyridin-4-yl)ethyl)piperidin-4-yl)ethyl)-2H-benzo[b][1,4]oxazin-3(4H)-one] | – | – | 64 (≈ 138 µM) | –
COc1ccc2ncc(F)c(CCN3CCC(C(=O)Cc4ccc5c(c4)OCCO5)CC3)c2n1 [Example 23, 2-(2,3-dihydrobenzo[b][1,4]dioxin-6-yl)-1-(1-(2-(3-fluoro-6-methoxy-1,5-naphthyridin-4-yl)ethyl)piperidin-4-yl)ethan-1-one] | 32 (≈ 68.7 µM) | – | > 32 | MIC [6]: 8 µg/mL (≈ 17.2 µM); MIC [9]: > 64 µg/mL; MIC [10]: > 64 µg/mL
COc1ccc2ncc(F)c(CCN3CCC(C(O)Cc4ccc(C)cc4)CC3)c2n1 (centres unmarked) [Example 25, 1-(1-(2-(3-fluoro-6-methoxy-1,5-naphthyridin-4-yl)ethyl)piperidin-4-yl)-2-(p-tolyl)ethan-1-ol] | 8 (≈ 18.9 µM) | 1 (≈ 2.36 µM) | 8 (≈ 18.9 µM) | –
COc1ccc2ncc(F)c(CCN3CCC(C(O)Cc4ccc5c(c4)OCCO5)CC3)c2n1 (centres unmarked) [Example 26, 2-(2,3-dihydrobenzo[b][1,4]dioxin-6-yl)-1-(1-(2-(3-fluoro-6-methoxy-1,5-naphthyridin-4-yl)ethyl)piperidin-4-yl)ethan-1-ol] | 4 (≈ 8.56 µM) | – | 4 (≈ 8.56 µM) | –
COc1ccc2ncc(F)c(CCN3CCC(C(O)Cc4ccc5c(c4)OCC(=O)N5)CC3)c2n1 (centres unmarked) [Example 27, 7-(2-(1-(2-(3-fluoro-6-methoxy-1,5-naphthyridin-4-yl)ethyl)piperidin-4-yl)-2-hydroxyethyl)-2H-benzo[b][1,4]oxazin-3(4H)-one] | – | ≤ 0.125 | 32 (≈ 66.6 µM) | –
COc1ccc2ncc(F)c(CCN3CCC(C(N)Cc4ccc(C)cc4)CC3)c2n1 (centres unmarked) [Example 28, 1-(1-(2-(3-fluoro-6-methoxy-1,5-naphthyridin-4-yl)ethyl)piperidin-4-yl)-2-(p-tolyl)ethan-1-amine] | 32 (≈ 75.7 µM) | – | > 32 | –
COc1ccc2ncc(F)c(CCN3CCC(C(N)Cc4ccc5c(c4)OCCO5)CC3)c2n1 (centres unmarked) [Example 29, 2-(2,3-dihydrobenzo[b][1,4]dioxin-6-yl)-1-(1-(2-(3-fluoro-6-methoxy-1,5-naphthyridin-4-yl)ethyl)piperidin-4-yl)ethan-1-amine] | > 16 | – | > 16 | –
COc1ccc2ncc(F)c(CCN3CCC(C(N)Cc4ccc5c(c4)NC(=O)CO5)CC3)c2n1 (centres unmarked) [Example 30, 6-(2-amino-2-(1-(2-(3-fluoro-6-methoxy-1,5-naphthyridin-4-yl)ethyl)piperidin-4-yl)ethyl)-2H-benzo[b][1,4]oxazin-3(4H)-one] | – | – | > 64 | –
CN[C@H](CC(C)C)C(=O)N[C@H]1C(=O)N[C@@H](CC(N)=O)C(=O)N[C@H]2C(=O)N[C@H]3C(=O)N[C@H](C(=O)N[C@H](C(=O)O)c4cc(O)cc(O)c4-c4cc3ccc4O)[C@H](O)c3ccc(c(Cl)c3)Oc3cc2cc(c3O[C@@H]2O[C@H](CO)[C@@H](O)[C@H](O)[C@H]2O[C@H]2C[C@](C)(N)[C@H](O)[C@H](C)O2)Oc2ccc(cc2Cl)[C@H]1O [vancomycin, reference compound] | 1 (≈ 0.69 µM) | – | 1 (≈ 0.69 µM) | MIC [4]: 1 to 2 µg/mL (≈ 0.69 to 1.38 µM); MIC [5]: 1 µg/mL (≈ 0.69 µM); MIC [6]: 1 µg/mL (≈ 0.69 µM)
